Data published in US12458622B2, “Methods of treatment of coronavirus-induced inflammation conditions” (priority 2020, dated 2025).
Read-outs that look alike come from different tables or passages of the source.

Columns and labels:
[1] = cited from earlier work
Rhesus Monkeys = details: cited from earlier work
BV2 microglial cells = test: Aβ42 uptake, confocal microscopy and ELISA; type: cell-based; details: naive BV2 cells, 16 hours pretreatment then 2 hours with Aβ42, vs DMSO
Procedure: After incubation, the cells were labeled with a plasma membrane dye (PM, green) and imaged.

Rat = details: cited from earlier work
[2] = test system: HMC3 human microglia cells; test: Cell viability assay by AO/PI stain; type: cell-based; details: 0.3 μM, TNF-α 0.3 μg/mL
Procedure: Human microglial cell line HMC3 (CRL-3304) was purchased from ATCC (American Type Culture Collection). HMC3 cell line was cultured in DMEM medium with 10% FBS, 1% L-glutamine, and 1% penicillin/streptomycin. Cells were maintained in 37° C. incubator at 5% CO2.
HMC3 cells were resuspended, counted using the LUNA-II Automated Cell Counter, seeded in the 6-well plate (300 K cells/2 mL medium/well), and incubated overnight to allow cells to attach. Cells were treated with TNF-α or IFN-γ at five different concentrations (0, 10, 30, 100, 300 ng/mL) for 24 hr to induce cell activation. The supernatant medium was completely aspirated and 1 mL of fresh DMEM was added to wash the cell layer to remove detached cells and debris. The attached cells were resuspended and washed with PBS. Cells were washed with FACS buffer (2% FBS in PBS) prior to incubation with Zombie Violet Fixable Viability Dye (#423114, Biolegend, 1:500 dilution) and Human Fe Receptor Blocking Solution (#422302, Biolegend, 1:20) diluted in FACS buffer at RT for 10 min in the dark. Cells were then washed with FACS buffer and incubated at RT for 20 min with the following cell-surface antibodies: FITC anti-MHC II (#361706, Biolegend), PerCP/Cy5.5 anti-CD11b (#301328, Biolegend), BV605 anti-CD40 (#334336, Biolegend), PE anti-CD86 (#374206, Biolegend), PE/Cy7 anti-CD163 (#326514, Biolegend), APC anti-CD206 (#321110, Biolegend), and PerCP/Cy5.5 anti-CD14 (#367110, Biolegend). All of the cell-surface antibodies were diluted 1:20 in FACS buffer. Cells were permeabilized using the Transcription Factor Fixation/Permeabilization Buffer Set (#424401, Biolegend). Then cells were incubated with the following intracellular antibodies: APC/Cy7 anti-CD68 (#333822, Biolegend), purified anti-IBA1 (#PA5-27436, Invitrogen), Goat anti-Rabbit-Alexa Fluor 647 (#A21245, Invitrogen), purified anti-GFAP (#644702, Biolegend), and Goat anti-Mouse-Alexa Fluor 488 (#11029, Invitrogen). All of the intracellular antibodies were diluted 1:100 in the Permeabilization buffer (lx). Cells were washed with Permeabilization buffer and fixed in Fixation Buffer (#420801, Biolegend). Flow cytometry was performed using the Attune NxT Acoustic Focusing Cytometer (Thermo Fisher Scientific). Analysis of flow cytometry data was performed via FCS Express 7 (DeNovo Software).
Cell viability was assessed with a LUNA-FL Automated fluorescence cell counter. Viable nucleated cells show green fluorescence and dying nucleated cells show red fluorescence. 18 µL of sample was mixed with 2 μL Acridine Orange/Propidium Iodide (AO/PI) Stain.
All the data were presented as mean±standard error from at least three times, each done in triplicate. The statistical significance between two groups was determined by Student's t test, whereas the comparisons of multiple groups were carried out by one-way ANOVA, followed by Bonferroni's post-test using GraphPad Prism 7 (GraphPad Software, Inc.). A probability value of * p<0.05 was considered to be significant.

O=C(O)c1cc(=O)c2c(OCC(O)COc3cccc4oc(C(=O)O)cc(=O)c34)cccc2o1 [cromolyn]
Adverse effects in repeat dose studies ([1]; all routes of administration): No adverse effects
Renal toxicity ([1]; dosing of high concentration, precipitation in the renal tubules): renal damage was observed
Mortality (Rhesus Monkeys; single IV dose of 5, 50, 500, 1000 mg/kg, 7-day observation): There were no mortalities.
Clinical signs and weight (Rhesus Monkeys; single IV dose, at 500 and 1000 mg/kg): Slight ataxia and weight
Aβ42 uptake (BV2 microglial cells): increased Aβ42 uptake
LD50 Value (Rat; IP): >4 gm/kg
LD50 Value (Rat; IV): >4 gm/kg
LD50 Value (Rat; Oral): >11 gm/kg
LD50 Value (Rat; SC): 6 gm/kg
TNF-α induced cell death [2]: significantly reduced cell death
